Results from ChEMBL document CHEMBL1148661, “SAR studies: designing potent and selective LXR agonists” (Bioorg Med Chem Lett, 2006).

Columns and labels:
[1] = biological target: T1, Peroxisome proliferator-activated receptor alpha (Homo sapiens, UniProt Q07869)
T1 sequence (Q07869 whole entry): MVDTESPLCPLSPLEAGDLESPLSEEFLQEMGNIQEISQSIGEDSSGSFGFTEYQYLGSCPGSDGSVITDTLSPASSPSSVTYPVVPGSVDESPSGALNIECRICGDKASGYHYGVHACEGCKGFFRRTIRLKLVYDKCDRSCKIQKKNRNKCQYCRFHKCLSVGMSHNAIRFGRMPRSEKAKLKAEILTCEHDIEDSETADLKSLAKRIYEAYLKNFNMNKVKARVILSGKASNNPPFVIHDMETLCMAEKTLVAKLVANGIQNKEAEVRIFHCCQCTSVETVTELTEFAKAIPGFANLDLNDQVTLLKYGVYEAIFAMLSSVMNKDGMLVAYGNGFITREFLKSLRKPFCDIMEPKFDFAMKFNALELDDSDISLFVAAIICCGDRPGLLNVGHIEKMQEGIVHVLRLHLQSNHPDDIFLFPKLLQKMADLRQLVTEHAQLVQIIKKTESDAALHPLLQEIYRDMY

[2] = biological target: T2, Peroxisome proliferator-activated receptor delta (Homo sapiens, UniProt Q03181)
T2 sequence (Q03181 whole entry): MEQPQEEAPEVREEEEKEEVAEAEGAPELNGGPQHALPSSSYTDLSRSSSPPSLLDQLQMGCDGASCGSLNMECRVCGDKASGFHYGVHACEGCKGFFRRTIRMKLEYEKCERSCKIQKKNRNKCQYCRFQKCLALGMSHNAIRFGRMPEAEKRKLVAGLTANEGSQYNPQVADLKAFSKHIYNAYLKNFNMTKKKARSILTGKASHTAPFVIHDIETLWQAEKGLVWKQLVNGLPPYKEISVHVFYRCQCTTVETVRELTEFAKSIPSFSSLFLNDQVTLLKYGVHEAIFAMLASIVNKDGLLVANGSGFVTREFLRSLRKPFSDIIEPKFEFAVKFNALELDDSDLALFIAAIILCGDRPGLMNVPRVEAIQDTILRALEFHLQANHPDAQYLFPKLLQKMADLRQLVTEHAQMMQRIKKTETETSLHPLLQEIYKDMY

[3] = biological target: T3, Oxysterols receptor LXR-alpha (Homo sapiens, UniProt Q13133)
T3 sequence (Q13133 whole entry): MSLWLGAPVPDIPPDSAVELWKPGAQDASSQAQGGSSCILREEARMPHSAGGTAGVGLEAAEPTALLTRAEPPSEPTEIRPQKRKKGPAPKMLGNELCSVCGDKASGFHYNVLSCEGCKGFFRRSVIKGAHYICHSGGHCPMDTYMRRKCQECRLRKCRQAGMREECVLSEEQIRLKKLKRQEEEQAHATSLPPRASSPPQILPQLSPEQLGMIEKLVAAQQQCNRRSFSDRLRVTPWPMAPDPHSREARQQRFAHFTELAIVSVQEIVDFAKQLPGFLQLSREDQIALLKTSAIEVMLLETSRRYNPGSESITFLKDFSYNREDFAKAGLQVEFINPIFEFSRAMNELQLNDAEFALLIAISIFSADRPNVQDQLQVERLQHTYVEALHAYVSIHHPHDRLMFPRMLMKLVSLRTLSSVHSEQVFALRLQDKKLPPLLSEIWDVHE

[4] = biological target: T4, Oxysterols receptor LXR-beta (Homo sapiens, UniProt P55055)
T4 sequence (P55055 whole entry): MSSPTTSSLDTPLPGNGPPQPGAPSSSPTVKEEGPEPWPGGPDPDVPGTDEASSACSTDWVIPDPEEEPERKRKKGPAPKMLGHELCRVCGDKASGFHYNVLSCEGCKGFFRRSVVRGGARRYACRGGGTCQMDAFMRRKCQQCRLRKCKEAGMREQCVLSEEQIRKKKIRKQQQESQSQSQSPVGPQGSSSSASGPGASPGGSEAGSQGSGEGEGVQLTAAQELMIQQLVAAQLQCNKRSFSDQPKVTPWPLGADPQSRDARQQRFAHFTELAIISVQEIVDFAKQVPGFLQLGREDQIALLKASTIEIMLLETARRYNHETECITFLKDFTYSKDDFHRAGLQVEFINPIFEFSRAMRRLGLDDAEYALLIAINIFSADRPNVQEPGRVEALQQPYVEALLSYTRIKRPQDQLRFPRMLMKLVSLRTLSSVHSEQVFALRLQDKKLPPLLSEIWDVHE

[5] = biological target: T3, Oxysterols receptor LXR-alpha; format: functional, cell-based, CHO
[6] = biological target: T4, Oxysterols receptor LXR-beta; format: functional, cell-based, CHO
[7] = organism: Mus musculus; details: in vivo
[8] = in vivo; details: mouse, iv, 0.5 mg/kg
[9] = in vivo; details: mouse, iv, 0.5 mg/kg; remark: listed apart in the source
[10] = in vivo; details: mouse
[11] = biological target: T5, Nuclear receptor subfamily 1 group I member 2 (Homo sapiens, UniProt O75469)
T5 sequence (O75469 whole entry): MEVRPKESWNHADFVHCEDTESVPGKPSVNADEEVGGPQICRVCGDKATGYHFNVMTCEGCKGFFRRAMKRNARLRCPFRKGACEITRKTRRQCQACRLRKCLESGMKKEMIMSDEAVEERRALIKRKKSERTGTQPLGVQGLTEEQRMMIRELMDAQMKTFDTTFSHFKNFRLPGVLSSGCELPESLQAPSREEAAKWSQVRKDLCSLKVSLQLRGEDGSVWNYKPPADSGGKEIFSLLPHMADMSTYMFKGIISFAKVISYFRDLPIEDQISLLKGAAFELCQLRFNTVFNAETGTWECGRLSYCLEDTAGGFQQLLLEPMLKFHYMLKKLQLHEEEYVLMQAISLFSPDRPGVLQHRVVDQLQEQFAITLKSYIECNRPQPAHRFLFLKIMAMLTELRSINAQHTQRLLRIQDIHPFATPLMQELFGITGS

IC50 [1]	IC50 [2]	IC50 [3]	IC50 [4]	EC50 [5]	EC50 [6]	AUC [7]	clearance [8]	Vd [9]	half-life [10]	IC50 [11]	Structure (SMILES)
2600 nM	8600 nM	110 nM	140 nM								CCCc1c(OCCCN(CC)c2ccc(CC(=O)O)cc2)ccc2c(C(F)(F)F)noc12
8300 nM		72 nM	199 nM	1900 nM	2800 nM						CCCc1c(OCCCn2ccc3cc(C(=O)O)ccc32)ccc2c(C(F)(F)F)noc12
		530 nM	970 nM								CCCc1c(OCCCCc2ccc(CC(=O)O)cc2)ccc2c(C(F)(F)F)noc12
4400 nM		410 nM	350 nM	2300 nM	1700 nM						CCCc1c(OCCCn2nnc3cc(CC(=O)O)ccc32)ccc2c(C(F)(F)F)noc12
400 nM		16 nM	16 nM	590 nM	450 nM	2.7 µM·kg·h/mg	18 mL/min/kg	2.7 L/kg	3.9 h		CCCc1c(OCCCn2ccc3cc(CC(=O)O)ccc32)ccc2c(C(F)(F)F)noc12
870 nM	150 nM	117 nM	26 nM	1300 nM	303 nM						CCCc1c(OCCCN(C)c2ccc(CC(=O)O)c(C)c2)ccc2c(C(F)(F)F)noc12
		372 nM	428 nM								CCCc1c(OCCCN(C)c2ccccc2)ccc2c(C(F)(F)F)noc12
140 nM	540 nM	60 nM	18 nM	3600 nM	1300 nM						CCCc1c(OCCCN(C)c2ccc(CC(=O)O)c(C(F)(F)F)c2)ccc2c(C(F)(F)F)noc12
		90 nM	40 nM	540 nM	150 nM	7.5 µM·kg·h/mg	17 mL/min/kg	2.8 L/kg	2.1 h		CCCc1c(OCCCN(C)c2cnc(CC(=O)O)cn2)ccc2c(C(F)(F)F)noc12
780 nM		73 nM	87 nM	480 nM	580 nM						CCCc1c(OCCCn2ncc3cc(CC(=O)O)ccc32)ccc2c(C(F)(F)F)noc12
		97 nM	700 nM	3000 nM	4400 nM						CCCc1c(OCCCN2C(=O)Cc3cc(C(=O)O)ccc32)ccc2c(C(F)(F)F)noc12
280 nM	4 nM	32 nM		5900 nM							CCCc1c(OCCCSc2ccc(CC(=O)O)cc2Cl)ccc2c(C(F)(F)F)noc12
	1800 nM	180 nM	410 nM		8600 nM						CCCc1c(OCCCn2cnc3cc(CC(=O)O)ccc32)ccc2c(C(F)(F)F)noc12
		6400 nM									CCCc1c(OCCCN(C=O)c2ccc(CC(=O)O)cc2)ccc2c(C(F)(F)F)noc12
		79 nM	190 nM	6000 nM	5100 nM						CCCc1c(OCCCN(C)c2ccc(C(=O)O)cc2)ccc2c(C(F)(F)F)noc12
600 nM		580 nM	320 nM								CCCc1c(OCCCN(C)c2ccc(CC(=O)O)cc2C)ccc2c(C(F)(F)F)noc12
	1400 nM	12 nM	10 nM	170 nM	124 nM						CCCc1c(OCCCN(C)c2ccc(CC(=O)O)c(Cl)c2)ccc2c(C(F)(F)F)noc12
230 nM		39 nM	65 nM		9700 nM						CCCc1c(OCCCOc2ccc(CC(=O)O)cc2Cl)ccc2c(C(F)(F)F)noc12
450 nM	70 nM	18 nM	6 nM	820 nM	700 nM						CCCc1c(OCCCn2ccc3cc(CCC(=O)O)ccc32)ccc2c(C(F)(F)F)noc12
19 nM	8 nM	730 nM	100 nM								CCCc1c(OCCCOc2ccc(CC(=O)O)cc2)ccc2c(C(F)(F)F)noc12
		6400 nM									CCCc1c(OCCCN(C(C)=O)c2ccc(CC(=O)O)cc2)ccc2c(C(F)(F)F)noc12
		26 nM	55 nM	620 nM	470 nM						CCCc1c(OCCCN(C)c2ncc(CC(=O)O)cn2)ccc2c(C(F)(F)F)noc12
		67 nM	100 nM	1100 nM	650 nM	3.1 µM·kg·h/mg	13 mL/min/kg	1.2 L/kg	1.2 h		CCCc1c(OCCCN(C)c2ncc(CC(=O)O)s2)ccc2c(C(F)(F)F)noc12
16 nM	88 nM	68 nM	89 nM	8000 nM	7700 nM						CCCc1c(OCCCNc2ccc(CC(=O)O)cc2)ccc2c(C(F)(F)F)noc12
						2 µM·kg·h/mg	8 mL/min/kg	1.2 L/kg	3.4 h		O=C(O)Cc1cccc(OCCCN(Cc2cccc(C(F)(F)F)c2Cl)CC(c2ccccc2)c2ccccc2)c1
		105 nM	630 nM	5000 nM							CCCc1c(OCCCN(C)c2ccc(CC(=O)O)cn2)ccc2c(C(F)(F)F)noc12
1500 nM	93 nM	102 nM	98 nM	2600 nM	3500 nM						CCCc1c(OCCCN(C)c2cccc(CC(=O)O)c2)ccc2c(C(F)(F)F)noc12
		19 nM	13 nM	180 nM	140 nM	1 µM·kg·h/mg	46 mL/min/kg	2.9 L/kg	1 h	> 10000 nM	CCCc1c(OCCCN2C(=O)Cc3cc(CC(=O)O)ccc32)ccc2c(C(F)(F)F)noc12
310 nM	310 nM	18 nM	25 nM	450 nM	360 nM						CCCc1c(OCCCN(C)c2ccc(CC(=O)O)cc2)ccc2c(C(F)(F)F)noc12
	49 nM	630 nM	170 nM								CCCc1c(OCCCN(C)c2ccc(CC(=O)O)cc2Cl)ccc2c(C(F)(F)F)noc12
